Molecular target: T1, FolE2 (Burkholderia thailandensis, UniProt Q2T7N4)
T1 construct: fused on or other part: N-terminal 6xHis tag from pET-28b(+) (NdeI/SacI)
Assay: biochemical
Design: species or system B. thailandensis
Settings: read-out: apparent Ki

C=C1CC[C@H]2C(=C)CC[C@H]3C(=C)C(=O)O[C@@H]3[C@@H]12 [DHL, dehydrocostus lactone]
Ki: 87 ± 21 µM
